Earlier results as cited in article PMC12036195 (Journal of Hematology & Oncology, 2025).

Test system: r/r PTCL

Q: Which Response rate does the source give for N#CC[C@H](C1CCCC1)n1cc(-c2ncnc3[nH]ccc23)cn1 [ruxolitinib] here?
A: Its Response rate is 25%.
